Tests used:
Assay in all cases: Enzyme Inhibition Assay
Beta-secretase 1 = Beta-secretase 1 (Homo sapiens, UniProt P56817); settings: pH 4.5; 22 °C
Beta-secretase 2 = target: T1, Beta-secretase 2 (Homo sapiens, UniProt Q9Y5Z0)
T1 sequence (Q9Y5Z0 whole entry): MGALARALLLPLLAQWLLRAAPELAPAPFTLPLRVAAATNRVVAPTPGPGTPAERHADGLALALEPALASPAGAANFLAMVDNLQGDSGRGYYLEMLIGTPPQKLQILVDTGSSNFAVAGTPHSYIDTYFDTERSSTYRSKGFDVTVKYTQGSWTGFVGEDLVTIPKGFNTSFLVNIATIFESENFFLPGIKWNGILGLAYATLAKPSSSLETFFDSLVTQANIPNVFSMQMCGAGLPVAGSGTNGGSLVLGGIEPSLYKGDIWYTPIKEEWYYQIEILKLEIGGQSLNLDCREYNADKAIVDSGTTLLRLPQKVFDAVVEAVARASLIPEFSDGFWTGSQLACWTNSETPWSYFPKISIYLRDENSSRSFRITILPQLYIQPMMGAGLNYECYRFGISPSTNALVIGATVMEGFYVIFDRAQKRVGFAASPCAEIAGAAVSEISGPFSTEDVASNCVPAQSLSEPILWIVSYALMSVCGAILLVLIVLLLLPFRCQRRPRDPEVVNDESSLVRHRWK

Cathepsin D = Cathepsin D (Homo sapiens, UniProt P07339)
Chain of Cathepsin D (P07339 65-162 limits assumed): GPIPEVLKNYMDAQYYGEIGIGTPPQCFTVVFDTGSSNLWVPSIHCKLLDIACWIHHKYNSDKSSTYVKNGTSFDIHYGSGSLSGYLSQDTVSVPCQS
Chain of Cathepsin D (P07339 169-412 limits assumed): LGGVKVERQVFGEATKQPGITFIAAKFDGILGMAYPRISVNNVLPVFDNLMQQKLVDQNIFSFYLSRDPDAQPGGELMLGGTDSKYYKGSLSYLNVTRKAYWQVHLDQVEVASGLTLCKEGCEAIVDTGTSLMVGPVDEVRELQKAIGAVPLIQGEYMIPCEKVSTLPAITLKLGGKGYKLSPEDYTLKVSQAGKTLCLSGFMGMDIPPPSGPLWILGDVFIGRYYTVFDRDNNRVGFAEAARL

Chain of Beta-secretase 1 (P56817 whole entry): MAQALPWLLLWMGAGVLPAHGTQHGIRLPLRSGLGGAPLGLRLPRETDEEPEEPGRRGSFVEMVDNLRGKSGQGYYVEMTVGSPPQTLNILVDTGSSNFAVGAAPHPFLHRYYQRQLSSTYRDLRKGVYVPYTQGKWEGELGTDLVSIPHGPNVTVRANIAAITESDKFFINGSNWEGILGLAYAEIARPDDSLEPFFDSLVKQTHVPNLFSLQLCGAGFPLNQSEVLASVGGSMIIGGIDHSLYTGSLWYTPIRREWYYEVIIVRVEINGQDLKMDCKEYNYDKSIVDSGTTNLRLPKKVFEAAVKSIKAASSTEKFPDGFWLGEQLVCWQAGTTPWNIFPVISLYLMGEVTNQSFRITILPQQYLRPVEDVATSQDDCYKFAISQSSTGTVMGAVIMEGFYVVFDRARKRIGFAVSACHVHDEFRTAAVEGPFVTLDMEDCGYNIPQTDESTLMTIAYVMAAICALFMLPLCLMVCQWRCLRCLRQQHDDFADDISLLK

Compound	IC50 (Beta-secretase 1)	IC50 (Beta-secretase 2)	IC50 (Cathepsin D)
CCN1CCN2CCS(=O)(=O)N(C)C3C=C(C(=O)N[C@@H](Cc4ccccc4)[C@H](O)CNCc4cccc(C(F)(F)F)c4)C=C1C32 (some centres not stated) [7,6,6 tricyclic sulfonamide, 10]	0.026 µM	3.8 µM	2.24 µM
CCN1CCN2CCS(=O)(=O)N(C)C3C=C(C(=O)N[C@@H](Cc4ccccc4)[C@H](O)CNC4CC4)C=C1C32 (some centres not stated) [7,6,6 tricyclic sulfonamide, 19]	0.55 µM	16.2 µM	26.3 µM
CCc1cn2c3c(cc(C(=O)N[C@@H](Cc4ccccc4)[C@H](O)CNCc4cccc(OC)c4)cc13)N(C)S(=O)(=O)CCC2 [8,6,5 tricyclic sulfonamide, 32]	0.028 µM	1.86 µM	1.57 µM
CCc1cn2c3c(cc(C(=O)N[C@@H](Cc4ccccc4)[C@H](O)CNC4CC4)cc13)N(C)S(=O)(=O)CCC2 [8,6,5 tricyclic sulfonamide, 33]	0.49 µM	5.46 µM	2.9 µM
